Patent US20200163984A1, “USE OF ISOVALERYL SPIRAMYCIN I, II AND/OR III IN MANUFACTURING MEDICAMENT FOR TREATING AND/OR PREVENTING TUMOR, AND MEDICAMENT” (SHENYANG FUYANG PHARMACEUTICAL TECHNOLOGY CO., LTD., priority 2017, published 2020)
Where two headings read alike, the source gives them in different places.

Legend:
[1] = system: transplanted tumor of human non-small cell lung cancer cell H1299
Experimental: (§1) Then cell concentration was adjusted to 1×10^7/ml with matrigel, then each nude mouse was inoculated subcutaneously with 0.2 ml of cells at its right armpit and recorded as the first day of inoculation. When the tumor grows to be greater than or equal to 100 mm^3, the mice were randomly divided into 11 groups with 6 mice in each group: isovaleryl spiramycin I groups with doses of 25, 50 and 100 mg/kg, isovaleryl spiramycin II groups with doses of 25, 50 and 100 mg/kg, and isovaleryl spiramycin III groups with doses of 25, 50 and 100 mg/kg. Each group was continuously administered intragastrically for 30 days with a dose of 20 ml/kg. The mice were sacrificed the next day after drug withdrawal and the indicators were tested. The long diameter and short diameter of the tumor, and the body weight of each mouse were recorded every 3 days from drug administration to nude mouse sacrifice.
(§2) The body weight of the nude mice and the long diameter (a) and short diameter (b) of the transplanted tumor were measured every 3 days, and the tumor volume (v), relative tumor volume (RTV) and relative tumor proliferation rate (T/C) are calculated respectively according to the following formulas, wherein V=a×b^2/2; RTV=V/V0 (V0 is the tumor volume before administration, V is the tumor volume before sacrifice), and T/C (%)=treatment group RTV/model control group RTV×100%.
(§3) Each mouse was weighed and sacrificed. After the tumor was completely stripped off from the body of the mouse, the non-tumor tissues such as blood stains and fat were removed to weigh the tumor and calculate the tumor growth inhibition rate. The average tumor weight of each group of mice is used as an indicator of efficacy. Tumor growth inhibition rate (%)=(1−the average tumor weight of the treatment group/the average tumor weight of the model group)×100%.

[2] = system: transplanted tumor of mouse Lewis lung cancer; assay: Transplanted tumor of mouse Lewis lung cancer; conditions: for Tumor Volume (mm3) (d 1) / Tumor Volume (mm3) (d30) / Relative Tumor Proliferation Rate (T/C) / Relative Tumor Volume (RTV): title prints KM mouse H22 cells; for Tumor Volume (mm3) (d30): d 30; for Body Weight (g) (d1) / Body Weight (g) (d 15): mouse, in vivo
Experimental: Lewis lung cancer cells were cultured in a RPMI 1640 culture medium containing 10% fetal bovine serum at 37° C. in a 5% CO2 incubator. The cells in the logarithmic growth phase were subjected to trypsinization with 0.25% trypsin, then the cells were collected to be centrifugated to remove the obtained supernatant, then were washed twice with sterile normal saline. […] The Lewis cells were adjusted to 1×10^7/mL in concentration and stored in ice water. 75% ethanol was used to disinfect the skin under the right armpits of the mice, and each C57BL/6 mouse was soon inoculated subcutaneously with 0.2 ml of the cells at its right armpit.
In the Lewis lung cancer model, the mice inoculated with the tumor were randomly divided into groups with 10 mice in each group the next day of inoculation. The groups included: a model control group, a positive drug cyclophosphamide control group (CTX, 30 mg/kg), isovaleryl spiramycin I groups with doses of 13, 26 and 52 mg/kg; isovaleryl spiramycin II groups with doses of 13, 26 and 52 mg/kg; isovaleryl spiramycin III groups with doses of 13, 26 and 52 mg/kg. Each group was continuously administered intragastrically for 15 days with a dose of 20 ml/kg.
The tumor-bearing mice were weighed and sacrificed the next day after the last administration. The subcutaneous tumors were dissected and weighed. The average tumor weight of each group is calculated, and the tumor inhibition rate is calculated.
Tumor inhibition rate=(1−T/C)×100%
T: average tumor weight of the drug-administered group; C: average tumor weight of the blank control group.

[3] = system: transplanted tumor of human lymphoma cell U937; assay: U937 transplanted tumor in nude mice; conditions: for Tumor Volume (mm3) (d 1): d1
Experimental: as §1, with “U937 cells in a logarithmic growth phase were taken and subjected to a trypan blue exclusion experiment showing that the cell viability was more than 95%, then the cells were subjected to trypsinization, centrifugation, and supernatant removal. Then” for “Then”, “group: a model group, a cyclophosphamide group,” for “group:”
as §2, §3

[4] = H1299, 25 mg/kg (low dose) i.g. 30 days
[5] = H1299, 50 mg/kg (medium dose) i.g. 30 days
[6] = H1299, 100 mg/kg (high dose) i.g. 30 days
[7] = U937, high dose (100 mg/kg in method) i.g. 30 days
[8] = U937, low dose (25 mg/kg in method) i.g. 30 days
[9] = U937, medium dose (50 mg/kg in method) i.g. 30 days

CO[C@@H]1[C@@H](O[C@@H]2O[C@H](C)[C@@H](O[C@H]3C[C@@](C)(O)[C@@H](OC(=O)CC(C)C)[C@H](C)O3)[C@H](N(C)C)[C@H]2O)[C@@H](CC=O)C[C@@H](C)[C@@H](O[C@H]2CC[C@H](N(C)C)[C@@H](C)O2)/C=C/C=C/C[C@@H](C)OC(=O)C[C@H]1O [Isovaleryl spiramycin I, isovaleryl spiramycin I]
Inhibition Rate (tumor growth inhibition rate) [1, 4]: 22.11% | Relative Tumor Proliferation Rate (T/C) [1, 4]: 89.42% | Relative Tumor Volume (RTV) [1, 4]: 11.46 ± 3.83 | Tumor Volume (d 1) [1, 4]: 136.07 ± 17.13 mm3 | Tumor Volume (d 30) [1, 4]: 1513.14 ± 387.19 mm3 | Tumor Weight [1, 4]: 1.36 ± 0.33 g | Inhibition Rate (tumor growth inhibition rate) [1, 5]: 43.83% | Relative Tumor Proliferation Rate (T/C) [1, 5]: 49.81% | Relative Tumor Volume (RTV) [1, 5]: 6.39 ± 1.01 | Tumor Volume (d 1) [1, 5]: 135.51 ± 20.47 mm3 | Tumor Volume (d 30) [1, 5]: 861.71 ± 164.32 mm3 | Tumor Weight [1, 5]: 0.98 ± 0.27 g | Inhibition Rate (tumor growth inhibition rate) [1, 6]: 69.95% | Relative Tumor Proliferation Rate (T/C) [1, 6]: 27.43% | Relative Tumor Volume (RTV) [1, 6]: 3.52 ± 0.68 | Tumor Volume (d 1) [1, 6]: 137.34 ± 22.95 mm3 | Tumor Volume (d 30) [1, 6]: 470.36 ± 21.77 mm3 | Tumor Weight [1, 6]: 0.52 ± 0.21 g | tumor volume and relative tumor volume compared with the model group ([1]; H1299, low, medium and high doses, P<0.05): significantly lower | mouse weight compared with the model group ([1]; mouse, in vivo): no significant changes | growth of Lewis lung cancer in mice ([2]; 13, 26 and 52 mg/kg i.g. 15 days): significantly inhibit | Tumor Volume (mm3) (d 1) ([2]; dose 12.5 mg/kg): 104.68 ± 20.89 mm3 | Tumor Volume (mm3) (d30) ([2]; dose 12.5 mg/kg): 955.73 ± 330.24 mm3 | Relative Tumor Proliferation Rate (T/C) ([2]; dose 12.5 mg/kg): 57.56 | Relative Tumor Volume (RTV) ([2]; dose 12.5 mg/kg): 9.22 ± 2.95 | Inhibition Rate (%) ([2]; dose 13 mg/kg): 46.94% | Tumor Weight ([2]; dose 13 mg/kg): 0.85 ± 0.24 g | Tumor Volume (mm3) (d 1) ([2]; dose 25 mg/kg): 104.31 ± 19.76 mm3 | Tumor Volume (mm3) (d30) ([2]; dose 25 mg/kg): 756.20 ± 145.84 mm3 | Relative Tumor Proliferation Rate (T/C) ([2]; dose 25 mg/kg): 45.51 | Relative Tumor Volume (RTV) ([2]; dose 25 mg/kg): 7.29 ± 0.82 | Inhibition Rate (%) ([2]; dose 26 mg/kg): 62.97% | Tumor Weight ([2]; dose 26 mg/kg): 0.59 ± 0.06 g | Tumor Volume (mm3) (d 1) ([2]; dose 50 mg/kg): 103.79 ± 19.55 mm3 | Tumor Volume (mm3) (d30) ([2]; dose 50 mg/kg): 465.26 ± 52.94 mm3 | Relative Tumor Proliferation Rate (T/C) ([2]; dose 50 mg/kg): 29.05 | Relative Tumor Volume (RTV) ([2]; dose 50 mg/kg): 4.65 ± 1.27 | Inhibition Rate (%) ([2]; dose 52 mg/kg): 71.83% | Tumor Weight ([2]; dose 52 mg/kg): 0.45 ± 0.14 g | Body Weight (g) (d1) ([2]; 13 mg/kg): 19.93 ± 1.20 g | Body Weight (g) (d 15) ([2]; 13 mg/kg): 22.70 ± 0.87 g | Body Weight (g) (d1) ([2]; 26 mg/kg): 19.45 ± 0.68 g | Body Weight (g) (d 15) ([2]; 26 mg/kg): 23.43 ± 1.41 g | Body Weight (g) (d1) ([2]; 52 mg/kg): 19.87 ± 1.17 g | Body Weight (g) (d 15) ([2]; 52 mg/kg): 23.25 ± 0.43 g | Relative Tumor Proliferation Rate (T/C) [3, 7]: 35.25% | tumor growth inhibition rate [3, 7]: 65.03% | Relative Tumor Proliferation Rate (T/C) [3, 8]: 68.65% | tumor growth inhibition rate [3, 8]: 41.73% | tumor volume and relative tumor volume compared with the model group ([3]; U937, low, medium and high doses, P<0.05): significantly lower | Relative Tumor Proliferation Rate (T/C) [3, 9]: 39.74% | tumor growth inhibition rate [3, 9]: 50.73% | Inhibition Rate (%) ([3]; U937 nude mice, 12.5 mg/kg): 41.73% | Relative Tumor Proliferation Rate (T/C) ([3]; U937 nude mice, 12.5 mg/kg): 68.65% | Relative Tumor Volume (RTV) ([3]; U937 nude mice, 12.5 mg/kg): 11.70 ± 3.59 | Tumor Weight ([3]; U937 nude mice, 12.5 mg/kg): 1.13 ± 0.60 g | Tumor Volume (mm3) (d 1) ([3]; U937 nude mice, 12.5 mg/kg): 108.43 ± 6.49 mm3 | Tumor Volume (mm3) (d30) ([3]; U937 nude mice, 12.5 mg/kg): 1270.43 ± 435.28 mm3 | Inhibition Rate (%) ([3]; U937 nude mice, 25 mg/kg): 50.73% | Relative Tumor Proliferation Rate (T/C) ([3]; U937 nude mice, 25 mg/kg): 39.74% | Relative Tumor Volume (RTV) ([3]; U937 nude mice, 25 mg/kg): 6.77 ± 0.57 | Tumor Weight ([3]; U937 nude mice, 25 mg/kg): 0.95 ± 0.42 g | Tumor Volume (mm3) (d 1) ([3]; U937 nude mice, 25 mg/kg): 108.61 ± 9.06 mm3 | Tumor Volume (mm3) (d30) ([3]; U937 nude mice, 25 mg/kg): 734.22 ± 76.87 mm3 | Inhibition Rate (%) ([3]; U937 nude mice, 50 mg/kg): 65.03% | Relative Tumor Proliferation Rate (T/C) ([3]; U937 nude mice, 50 mg/kg): 35.25% | Relative Tumor Volume (RTV) ([3]; U937 nude mice, 50 mg/kg): 6.01 ± 2.26 | Tumor Weight ([3]; U937 nude mice, 50 mg/kg): 0.68 ± 0.09 g | Tumor Volume (mm3) (d 1) ([3]; U937 nude mice, 50 mg/kg): 109.98 ± 5.88 mm3 | Tumor Volume (mm3) (d30) ([3]; U937 nude mice, 50 mg/kg): 660.17 ± 37.49 mm3 | mouse weight compared with the model group ([3]; mouse, in vivo): no significant changes | Body Weight (g) (d1) ([3]; mouse, in vivo, 12.5 mg/kg): 21.19 ± 0.66 g | Body Weight (g) (d30) ([3]; mouse, in vivo, 12.5 mg/kg): 21.16 ± 0.74 g | Body Weight (g) (d1) ([3]; mouse, in vivo, 25 mg/kg): 21.28 ± 0.52 g | Body Weight (g) (d30) ([3]; mouse, in vivo, 25 mg/kg): 21.01 ± 0.68 g | Body Weight (g) (d1) ([3]; mouse, in vivo, 50 mg/kg): 20.64 ± 0.39 g | Body Weight (g) (d30) ([3]; mouse, in vivo, 50 mg/kg): 20.94 ± 0.77 g
